Assay results as given in ChEMBL document CHEMBL1125480, “Studies on antidiabetic agents. 11. Novel thiazolidinedione derivatives as potent hypoglycemic and hypolipidemic agents” (1992).

Assays:
Type in all cases: functional
Mus musculus [1] = species on record: Mus musculus; assay: Compound was tested for maximum reduction in blood glucose levels in KKA mice at a dosage of 0.05% in diet
Mus musculus [2] = species on record: Mus musculus; assay: (§1) Effective dose to reduce 25% of glucose levels in blood; settings: Mus musculus, Blood
Mus musculus [3] = species on record: Mus musculus; assay: Effective dose to reduce 25% of triglyceride levels in plasma
Mus musculus [4] = species on record: Mus musculus; assay: Compound was tested for maximum reduction in plasma triglyceride levels in KKA mice at a dosage of 0.05% in diet
Mus musculus [5] = species on record: Mus musculus; assay: Compound was tested for maximum reduction in blood glucose levels in KKA mice at a dosage of 0.01% in diet
Mus musculus [6] = species on record: Mus musculus; assay: Compound was tested for maximum reduction in plasma triglyceride levels in KKA mice at a dosage of 0.01% in diet
Mus musculus [7] = species on record: Mus musculus; assay: Maximum reduction in plasma triglyceride levels in KKA mice at a dosage of 0.001% in diet
Mus musculus [8] = species on record: Mus musculus; assay: Maximum reduction in blood glucose levels in KKA mice at a dosage of 0.005% in diet
[9] = as §1; settings: Mus musculus
Mus musculus [10] = species on record: Mus musculus; assay: Maximum reduction in blood glucose levels in KKA mice at a dosage of 0.001% in diet
Mus musculus [11] = species on record: Mus musculus; assay: Maximum reduction in plasma triglyceride levels in KKA mice at a dosage of 0.005% in diet

SMILES	Reduction (Mus musculus [1]) [%]	ED25 (Mus musculus [2]) [mg/kg/day]	ED25 (Mus musculus [3]) [mg/kg/day]	Reduction (Mus musculus [4]) [%]	Reduction (Mus musculus [5]) [%]	Reduction (Mus musculus [6]) [%]	Reduction (Mus musculus [7]) [%]	Reduction (Mus musculus [8]) [%]	ED25 [9] [mg/kg/day]	Reduction (Mus musculus [10]) [%]	Reduction (Mus musculus [11]) [%]
O=C1NC(=O)C(Cc2ccc(OCCc3coc(-c4ccccc4)n3)cc2)S1 (configuration not stated)	58	0.3	0.5	68	41	51					
Cc1oc(-c2ccco2)nc1CCOc1ccc(CC2SC(=O)NC2=O)cc1 (configuration not stated)			0.9				41	50	0.4	50	69
